Results published in patent US4322416A, “10-Alkynyl steroids” (Merrell Dow Pharmaceuticals Inc., priority 1981, dated 1982).
Entries after “also recorded” stand apart in the source; their conditions may differ.

Tests used:
[1] = biological target: T1, aromatase (microsomal fraction from human placenta) (Homo sapiens, UniProt P11511); assay: biochemical; assay type: biochemical
T1 construct: microsomal fraction isolated from human placenta; from tissue; host or cells: human placenta, microsomal fraction
T1 sequence (P11511 1-503): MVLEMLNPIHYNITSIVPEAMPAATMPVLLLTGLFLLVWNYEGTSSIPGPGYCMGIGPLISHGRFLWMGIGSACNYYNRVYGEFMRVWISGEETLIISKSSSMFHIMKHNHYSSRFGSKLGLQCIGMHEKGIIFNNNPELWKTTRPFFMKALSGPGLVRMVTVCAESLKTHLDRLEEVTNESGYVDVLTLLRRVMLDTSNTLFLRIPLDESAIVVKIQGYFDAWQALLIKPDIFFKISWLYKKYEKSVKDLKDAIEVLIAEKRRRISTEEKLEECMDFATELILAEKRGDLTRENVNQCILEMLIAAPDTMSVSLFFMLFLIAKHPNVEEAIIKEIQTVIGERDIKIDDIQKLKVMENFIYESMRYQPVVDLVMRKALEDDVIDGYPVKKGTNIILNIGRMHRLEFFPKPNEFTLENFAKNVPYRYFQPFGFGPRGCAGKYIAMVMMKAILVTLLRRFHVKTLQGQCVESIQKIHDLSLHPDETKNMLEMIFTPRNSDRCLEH
Description: (§1) The aromatase inhibitory action of the compounds of the invention can be determined using a radioenzymatic assay. An aromatase enzyme preparation from the microsomal fraction isolated from human placenta is employed.
Assay buffer contains 100 mM KCl, 10 mM KH2 PO4, 10 mM dithiothreitol and 1 mM EDTA at pH 8.0. […] Aromatase requires NADPH as a cofactor, therefore a generating system is included which uses 0.5 mM NADP^+, 2.5 mM glucose-6-phosphate, and 1.0 unit/ml of glucose-6-phosphate dehydrogenase in assay buffer. The enzyme reaction is initiated by the addition of 700 μl of aromatase preparation, usually 50 μg microsomal protein per ml of assay buffer. These preparations are mixed using a vortex mixer and incubated for 30 minutes at 37° C. with 95% O2 :5% CO2 gas phase in a Dubinoff shaking incubator.
The enzymatic reaction is terminated by the addition of CHCl3. After vortexing 20 seconds, aqueous/organic emulsions are dispersed and phase separation achieved following centrifugation at 600×g for 10 minutes. Duplicate 500 μl samples of the upper aqueous phase of each incubation sample are added to 10×75 mm culture tubes. […] The radioactivity of ^3 H2 O resulting from liberated 1β and 2β tritium atoms during the enzymatic reaction is determined by counting for 10 minutes in a liquid scintillation counter. […]

[2] = biological target: T2, aromatase (aromatase preparation; microsomal protein) (Homo sapiens, UniProt P11511); assay: biochemical
T2 sequence (P11511 1-503): T1 sequence (P11511 1-503)
Description: as §1
In this assay, the inhibitor is preincubated with enzyme prior to assaying for enzyme activity in the presence of high substrate levels.
In the time-dependent assay, an amount of the enzyme inhibitor in 100 μl of the assay buffer described above which will provide assay concentrations which are approximately one and ten times the IC50 values are added to 35 ml centrifuge tubes containing 600 μl of the NADPH generating system described above. The preincubation is started by the addition of 700 μl of aromatase preparation, usually 500-800 μg of microsomal protein per ml of assay buffer. These preparations are mixed using a vortex mixer and incubated for 0, 10, 20 or 40 minutes at 25° C. […] Following vortexing, the enzyme incubation is continued for 10 minutes before being terminated by the addition of chloroform. The amount of radioactivity in the aqueous fraction is determined by scintillation procedures. […] Therefore, the present enzyme inhibition is expressed as a percentage: [100 percent minus percent enzyme activity of inhibitor].
Compounds which show time-dependent inhibition are then assayed to establish the inhibition constant, Ki, which is the apparent dissociation constant for the enzyme-inhibitor complex. This determination requires measurements at initial velocities of enzyme reaction. […] The enzyme half-life (t1/2) at these different inhibitor concentrations ([In]) is used to determine the Ki by the linear regression equation of the t1/2 vs. 1/[In]. The Ki is equivalent to the inhibitor concentration when t1/2 is equal to zero.

[3] = tested on: aromatase; conditions: microsomal enzyme preparations from human placenta; cited from earlier work
[4] = tested on: estrogen production required for ovulation; conditions: rats; cited from earlier work
[5] = tested on: implantation in mated rats; conditions: cited from earlier work

C#CC[C@]12CCC(=O)C=C1CC[C@@H]1[C@@H]2CC[C@]2(C)C(=O)CC[C@@H]12 [10-(2-propynyl)estr-4-ene-3,17-dione]
IC50 [1]: 4.2 nM
enzyme affinity compared with known inhibitors [1]: greater enzyme affinity than other known inhibitors; also recorded: superior to known aromatase inhibitors
Ki [2]: 8.9 nM
affinity for the enzyme site relative to that of the natural substrate testosterone ([2]; Ki vs. Km of testosterone): five times greater
irreversible binding to / irreversible inhibition of aromatase ([2]; time-dependent inhibition, in words): irreversibly bound to the enzyme

C[C@]12CCC(=O)C(O)=C1CC[C@@H]1[C@@H]2CC[C@]2(C)C(=O)CC[C@@H]12 [4-hydroxy-androst-4-ene-3,17-dione]
identified as aromatase inhibitor [3]: identified as aromatase inhibitors

CC(=O)OC1=C2CC[C@@H]3[C@H](CC[C@]4(C)C(=O)CC[C@@H]34)[C@@]2(C)CCC1=O [4-acetoxy-androst-4-ene-3,17-dione]
preventing estrogen production required for ovulation [4]: effective in preventing estrogen production required for ovulation in rats
identified as aromatase inhibitor [3]: identified as aromatase inhibitors

C[C@]12C=CC(=O)C=C1C=C[C@@H]1[C@@H]2CC[C@]2(C)C(=O)CC[C@@H]12 [Androsta-1,4,6-triene-3,17-dione]
preventing implantation [5]: effective in preventing implantation in mated rats
identified as aromatase inhibitor [3]: identified as aromatase inhibitors
